According to patent publication US12458688B2, “Epitopes” (Scancell Limited, priority 2018, dated 2025):
Where no end group is shown, it is not given here. [ ]: non-standard residue; d: D form. hCit = NC(=O)NCCCC[C@H](N)C(=O)O

Assays:
[1] = tested on: HLA transgenic mice; test: T cell response to Hcit peptides in HLA transgenic mice (screening, ex vivo ELISpot); set-up: species or system mouse; conditions: yes/no; Hcit peptide with CpG/MPLA
Procedure: (§1) C57BL/6 mice (Charles River, UK), HLA-DR4 mice (Model #4149, Taconic, USA), HLA-A2/DR1 (HHDII/DR1, Pasteur Institute), HLA-A2.1+/+HLA-DP4+/+hCD4+/+ (HLA-HHDII/DP4) transgenic mice (EM: 02221, European Mouse Mutant Archive) described in patent WO2013/017545 A1 (EMMA repository, France) were used, aged between 8 and 12 weeks. Peptides were dissolved in PBS to 1 mg/ml and then emulsified (a series of dilutions) with CpG ODN 1826 and MPLA 6 μg/mouse of each (Invivogen, UK). Peptides (25 μg/mouse) were injected subcutaneously at the base of the tail. Mice were immunised at days 1, 7 and 14 for peptide immunisation. Spleens were removed for analysis at day 21 unless stated otherwise.
(§2) ELISpot assays were performed using murine IFNγ, IL-17 and IL-10 capture and detection reagents according to the manufacturer's instructions (Mabtech, Sweden). In brief, anti-IFNγ, IL-17 and IL-10 specific antibodies were coated onto wells of 96-well Immobilin-P plate. Synthetic peptides (at various concentrations) and 5×10^5 per well splenocytes were added to wells of the plate in quadruplicate Tumour target cells were added where relevant at 5×10^4/well in triplicate and plates incubated for 40 hrs at 37° C. After incubation, captured IFNγ, IL-10 and IL-17 were detected by biotinylated anti-IFNγ, IL-10 and IL-17 antibodies and developed with a streptavidin alkaline phosphatase and chromogenic substrate. Lipopolysaccharide (LPS; 5 μg/ml) was used as a positive control. For MHC blocking studies, anti-CD4 blocking antibody (GK1.5) or anti-CD4 blocking antibody (RPA-T4) for HHDII/DP4 mice which express human CD4 and anti-CD8 blocking antibody (2.43) from Bioxcell were used at 20 μg/ml. Spots were analysed and counted using an automated plate reader (Cellular Technologies Ltd).
Screening was performed to identify potential homocitrullinated vimentin epitopes in mice. Mice were immunised with pools of homocitrullinated peptides. […] Each pool was administered as three immunisations containing 20 μg of each peptide and CpG/MPLA as an adjuvant on day 1, 8 and 15. On day 21 the mice were culled and the immune responses to each peptide within the immunising pool were assessed by ex vivo ELISpot. Given that different mouse strains have different MHC repertoires a number of strains were used for screening. Peptide responses were assessed in transgenic strains expressing human DR4 or HHDII/DR1 in a C57BL/6 background (see methods).
(§3) Screening was performed to identify potential homocitrullinated ALDOA epitopes in transgenic HHDII/DP4 and HHDII/DR1 mice. Mice were immunised with pools of human homocitrullinated peptides. […] Each pool was administered as three immunisations containing 20 μg of each peptide and CpG/MPLA as an adjuvant. After 21 days the mice were culled and the immune responses to each peptide within the immunising pool were assessed by ex vivo ELISpot in HHDII/DP4 (FIG. 4b) and HHDII/DR1 mice (FIG. 4d).
as §3, with “Using this combination of predictions, 5 CyK8 peptides containing homocitrulline were synthesised (Table 4). Screening” for “Screening”, “Cyk8” for “ALDOA”, “HHDII/DP4.” for “HHDII/DP4 and HHDII/DR1 mice.”, “10a).” for “4b) and HHDII/DR1 mice (FIG. 4d).”

[2] = tested on: HLA-HHDII/DP4 mice; test: Ex vivo IFNγ ELISpot after peptide immunisation, HHDII/DP4 mice; assay type: in vivo, mouse; conditions: for IFNγ ELISpot response: 3 immunisations with CpG/MPLA, day 21
Procedure: as §1, §2
as §3, with “4d). […] Our predictions therefore identified 3/5 peptides which could induce a T cell response. […] Of the responding peptides ALDOA 74-93 Hcit and 140-157 Hcit peptides are homologous in human and mice therefore these two peptides were selected for further investigation. Minimal IL-10 (FIG. 6b) or IL-17 (FIG. 6c) responses were seen to Aldolase peptides in HHDII/DP4 mice.” for “4d).”
Using this combination of predictions, 5 CyK8 peptides containing homocitrulline were synthesised (Table 4). Screening was performed to identify potential homocitrullinated Cyk8 epitopes in transgenic HHDII/DP4. Mice were immunised with pools of human homocitrullinated peptides. […] Each pool was administered as three immunisations containing 20 μg of each peptide and CpG/MPLA as an adjuvant. After 21 days the mice were culled and the immune responses to each peptide within the immunising pool were assessed by ex vivo ELISpot in HHDII/DP4 (FIG. 10a). […] The responses to CyK8 101-120 Hcit, 112-131 Hcit, 182-201 Hcit, 371-388 Hcit and 381-399 Hcit immunisation were characterised for cross reactivity to the wt peptide sequence. […] Thus a key characteristic of immunogenic peptides is they express homocitrulline. All of these peptides (100%) were immunogenic. Thus a high predicted HLA-DP4 binding affinity (<30), the presence of homocitrulline residues in the core region, the peptide being amphipathic in nature with a predominantely spiral conformational structure upon 3D modelling, and the existence of homology between the mouse and human sequences defines immunogenicity. When this model was applied retrospectively to include the vimentin and ALDOA peptides 8/9 (88%) were correctly predicted. […]

[3] = tested on: B16F1 HHDII/DR1 tumours; test: Tumour therapy, B16F1 HHDII/DR1 tumour in HHDII/DR1 mice; assay type: in vivo, mouse; conditions: peptide with CpG/MPLA days 4, 11, 18
Description: To determine if the epitopes that stimulate T cell responses are presented on MHC-II within the tumour environment, our homocitrullinated peptides were checked for tumour therapy in B16 tumour models. Mice were implanted with tumour cells on day 1 and then immunised with peptides and CpG/MPLA on days 4, 11 and 18.
HHDII/DR1 (FIG. 19a) or DR4 (FIG. 19b) transgenic mice were challenged with B16F1 HHDII/DR1 or B16F1 DR4 tumours respectively prior to immunisation with vimentin 116-135Hcit peptide and tumour growth and survival were monitored.
HHDII/DR1 mice were implanted with B16HHDII/DR1 tumour cells on day 1 and then immunised with Cyk8 371Hcit, 112hcit or both peptides and CpG/MPLA on days 4, 11 and 18.

Substance	T cell response [1]	IFNγ ELISpot response [2]	IFNγ response in presence of CD4 blocking antibody [2]	cross reactivity of Hcit response to wt peptide [2]	IFNγ response in presence of CD8 blocking antibody [2]	anti-tumour response / survival vs control [3]	survival [3] [%]
EIN-hcit-RTEMENEFVLI-hcit-hcit-DVDE (EIN[hCit]RTEMENEFVLI[hCit][hCit]DVDE) [Cyk8 182-202 Hcit]	Yes	stimulation of IFNγ responses	–	–	–	–	–
HACTQ-hcit-FSH(N)EEIAMATVTA (HACTQ[hCit]FSHNEEIAMATVTA; not fully specified; printed as HACTQ-hcit-FSH(N)EEIAMATVTA) [Aldolase A 238-256 Hcit]	yes	stimulation of IFNγ responses	–	–	–	–	–
IGGVILFHETLYQ-hcit-ADDGRP (IGGVILFHETLYQ[hCit]ADDGRP) [Aldolase A 74-93 Hcit]	yes	stimulation of IFNγ responses	significantly reduced	limited responses	–	–	–
KFASFID-Hcit-VRFLEQQN-Hcit-MLE (KFASFID[hCit]VRFLEQQN[hCit]MLE) [Cyk8 101-120 Hcit]	Yes	stimulation of IFNγ responses	inhibited	–	–	–	–
LEQQN-hcit-MLET-hcit-WSLLQQQ-hcit-T (LEQQN[hCit]MLET[hCit]WSLLQQQ[hCit]T) [Cyk8 112-131 Hcit]	Yes	stimulation of IFNγ responses	not with CD4 blocking antibody	significantly higher	inhibited	Significant prevention of tumour growth	–
LREYQELMNV-hcit-LALDIEI (LREYQELMNV[hCit]LALDIEI) [Cyk8 371-388 Hcit]	Yes	–	inhibited	significantly higher	–	Significant prevention of tumour growth	–
NYID-Hcit-VRFLEQQN-Hcit-ILLAEL (NYID[hCit]VRFLEQQN[hCit]ILLAEL) [Vimentin 116-135 Hcit]	yes	no IFNγ responses were observed	–	–	–	–	50
hcit-DGADFA-hcit-WRCVL-hcit-IGEH ([hCit]DGADFA[hCit]WRCVL[hCit]IGEH) [Aldolase A 140-157 Hcit]	yes	stimulation of IFNγ responses	significantly reduced	limited responses	–	significant increase in survival	–
hcit-LALDIEIATYR-hcit-LLEGEE ([hCit]LALDIEIATYR[hCit]LLEGEE) [Cyk8 381-399 Hcit]	Yes	stimulation of IFNγ responses	–	significantly higher	–	–	–
